{"source": "patent US20080145313A1", "about": "“Compositions and Methods for the Treatment and Prevention of Neoplastic Disorders” (Genesis Research & Development Corporation Limited, priority 2006, published 2008)", "key": {"YBX1 mRNA": {"system": "YBX1 mRNA", "assay": "YBX1 mRNA level by quantitative RT-PCR in A549 cells", "format": "cell-based, human", "conditions": "24 h post-transfection", "procedure": "A549 cells were transfected with 10 nM RRM1-1 (SEQ ID NO: 4830 (DNA), and SEQ ID NO: 5136 (RNA); light grey bar in FIG. 12A), RRM1-2 (SEQ ID NO: 4831 (DNA), and SEQ ID NO: 5137 (RNA); dark grey bar in FIG. 12A), RRM1-3 (SEQ ID NO: 4832 (DNA), and SEQ ID NO: 5138 (RNA); black bar in FIG. 12A) or control siRNA (SEQ ID NO: 4804 (DNA), and SEQ ID NO: 5301 (RNA)) (open bar in FIG. 12A) and relative mRNA levels quantified 24 h post-transfection. RNA was purified from cells using Trizol® extraction as per the manufacturer's protocol (Invitrogen). cDNA was prepared by digesting approximately 200 ng purified RNA with DNAse I (Invitrogen) for 15 minutes at room temperature, followed by 15 minutes at 65° C. in the presence of 25 mM EDTA. 30 ng random primers were added and incubated for 10 minutes at room temperature, 1 minute on ice; Superscript III polymerase (Invitrogen) was added in presence of 5 nM DTT (Sigma, St Louis, Mo.) and 1 mM deoxyribonucleotides (Invitrogen), and the reaction incubated at 25° C. for 5 minutes, followed by an hour at 55° C. cDNA was diluted 1:3 in 10 mM Tris pH 7.0, and quantitative RT-PCR carried out on an ABI Prism 7900HT (Applied Biosciences, Inc., Foster City, Calif.) using FastStart TaqMan SYBRGreen (Roche, Basel, Switzerland) and specific primers at 360 nM for RRM1 and RRM2 and the housekeeping genes HPRT and Lamin. Primer sequence pairs used for RRM1, RRM2, HPRT and lamin are given in SEQ ID NO: 4881 and 4882; 4883 and 4884; 4885 and 4886; 4887 and 4888 respectively.\nA549 cells were transfected with 0.1, 1.0 and 10 nM siRNA (given in SEQ ID NO: 4981 to 4985 (DNA), and SEQ ID NO: 5276-5280 (RNA)) and the relative mRNA levels quantified 24 h post-transfection as described in Example 8."}, "SK-Mel-5 cells": {"system": "SK-Mel-5 cells", "assay": "Growth inhibition of siRNA-transfected SK-Mel-5 cells, SYBR Green I DNA content", "format": "cell-based, human", "conditions": "10 nM siRNA; standardized against control siRNA", "procedure": "A549 cells (human lung cancer cell line; ATCC No. CCL-185), SK-MeI-5 cells (human melanoma cell line; ATCC No. HTB-70), MCF-7 cells (human adenocarcinoma cell line; ATCC No. HTB-22), HCT-116 cells (colorectal carcinoma; ATCC CCL-247) and HCT-116 p53 null cells (derived from ATCC No. CCL-247; Bunz et al., Science 282:1497-1501, 1998) were cultured in RPMI 1640 medium with 10% v/v heat-inactivated fetal calf serum (FCS). Cells were seeded at a density of 5×10^4 cells/cm^2 in multi-well tissue culture plates. Sequences of Stealth™ siRNA duplexes (Invitrogen) targeting human ribonucleotide reductase subunit 1 (SEQ ID NO: 22) and subunit 2 (SEQ ID NO; 38) are given in SEQ ID NO: 4830-4832 (DNA), and SEQ ID NO: 5136-5138 (RNA) for RRM1, and SEQ ID NO: 5306-5308 (DNA), and SEQ ID NO: 5303-5305 (RNA) for RRM2. siRNAs were transfected at different concentrations into cells using Lipofectamine™ RNAiMAX transfection reagent (Invitrogen). Non-specific siRNA (SEQ ID NO: 4804 and 4805 (DNA), and SEQ ID NO: 5301 and 5302 (RNA)) were used as controls. The cellular DNA content was measured using a SYBR Green I-based fluorometric assay at 24, 48, 72 and 96 hours after transfection (120 hours for the MCF-7 cells), as follows. At the indicated time points following reverse transfection, cells were harvested and frozen at −80° C. overnight. Cells were thawed and cell lysis buffer (phosphate-buffered saline (PBS) containing 1% Triton X-100, pH 7) and SYBR Green I (1:10^5 V/V; Invitrogen) was added to the wells and incubated overnight in the dark at 4° C.\nThe following day, cell lysates were mixed thoroughly, and DNA fluorescence was measured with a Wallac Victor^2 plate reader (Turku, Finland) set at an excitation frequency of 485 nm and measuring emission at 535 nm.\nsiRNA-mediated inhibition of cancer cell growth using siRNA targeting the YBX1 gene (SEQ ID NO: 92) was determined as follows. SK-MeI-5 cells were cultured in RPMI 1640 medium with 10% v/v heat-inactivated fetal calf serum. Cells were cultured as described above and reverse transfected with 0.1, 1.0, 10 and 40 nM (final concentration) of a pool of YBX1-targeting siRNAs (SEQ ID NO: 4982 and 4983 (DNA), and SEQ ID NO: 5277 and 5278 (RNA); referred to as 994 and 995 in FIG. 19) or a non-specific control (SEQ ID NO: 4804 (DNA), and SEQ ID NO: 5301 (RNA); referred to as Stealth 81 ctrl in FIG. 19), and cell growth determined after 120 h by measuring DNA fluorescence with a Wallac Victor^2 plate reader (Turku, Finland) set at an excitation frequency of 485 nm and measuring emission at 535 nm. Growth inhibition by the siRNA pool was standardized against the inhibition obtained with the control siRNAs.\nsiRNA-mediated RNAi was also determined on a panel of different cell lines. A549, SK-MeI-5, wt HCT-116, HCT-116−/−p53 and MCF-7 cells were transfected with 10 nM siRNAs targeting YBX-1 and growth inhibition determined as described above. The YBX1 siRNAs are given in SEQ ID NO: 4981 to 4985 (DNA) and SEQ ID NO: 5276-5280 (RNA). A non-specific siRNA (SEQ ID NO: 4804 (DNA) and SEQ ID NO: 5301 (RNA)) was used as control. Growth inhibition by the siRNAs, given in Table 14, was standardized against the inhibition obtained with the control siRNA."}}, "data": [{"substance": "SEQ ID NO: 4985: siRNA targeting YBX1 (chain 1 CAGCCTAGAGAGGACGGCAATGAAG; chain 2 CAGCCUAGAGAGGACGGCAAUGAAG; chemistry not given here; one strand in two spellings)", "values": [{"measurement": "YBX1-specific reduction of mRNA levels in A549 cells", "setting": "YBX1 mRNA; 0.1 nM siRNA", "value": "+ (At least 20% inhibition)"}, {"measurement": "YBX1-specific reduction of mRNA levels in A549 cells", "setting": "YBX1 mRNA; 1 nM siRNA", "value": "++ (At least 50% inhibition)"}, {"measurement": "YBX1-specific reduction of mRNA levels in A549 cells", "setting": "YBX1 mRNA; 10 nM siRNA", "value": "++ (At least 50% inhibition)"}, {"measurement": "growth inhibition, SK-Mel-5 cells", "setting": "SK-Mel-5 cells", "value": "++ (At least 50% inhibition)"}]}, {"substance": "SEQ ID NO: 4984: siRNA targeting YBX1 (chain 1 CAAGGTAGACCAGTGAGGCAGAATA; chain 2 CAAGGUAGACCAGUGAGGCAGAAUA; chemistry not given here; one strand in two spellings)", "values": [{"measurement": "YBX1-specific reduction of mRNA levels in A549 cells", "setting": "YBX1 mRNA; 0.1 nM siRNA", "value": "+++ (At least 70% inhibition)"}, {"measurement": "YBX1-specific reduction of mRNA levels in A549 cells", "setting": "YBX1 mRNA; 1 nM siRNA", "value": "+++ (At least 70% inhibition)"}, {"measurement": "YBX1-specific reduction of mRNA levels in A549 cells", "setting": "YBX1 mRNA; 10 nM siRNA", "value": "+++ (At least 70% inhibition)"}, {"measurement": "growth inhibition, SK-Mel-5 cells", "setting": "SK-Mel-5 cells", "value": "+++ (At least 70% inhibition)"}]}, {"substance": "SEQ ID NO: 4983: siRNA targeting YBX1 (chain 1 TACTGTGGTCGACGCCCATAGGGTC; chain 2 UACUGUGGUCGACGCCCAUAGGGUC; chemistry not given here; one strand in two spellings)", "values": [{"measurement": "YBX1-specific reduction of mRNA levels in A549 cells", "setting": "YBX1 mRNA; 10 nM siRNA", "value": "++ (At least 50% inhibition)"}, {"measurement": "growth inhibition, SK-Mel-5 cells", "setting": "SK-Mel-5 cells", "value": "++ (At least 50% inhibition)"}]}, {"substance": "SEQ ID NO: 4982: siRNA targeting YBX1 (chain 1 TTTGCTGGTAATTGCGTGGAGGACC; chain 2 UUUGCUGGUAAUUGCGUGGAGGACC; chemistry not given here; one strand in two spellings)", "values": [{"measurement": "YBX1-specific reduction of mRNA levels in A549 cells", "setting": "YBX1 mRNA; 1 nM siRNA", "value": "+++ (At least 70% inhibition)"}, {"measurement": "YBX1-specific reduction of mRNA levels in A549 cells", "setting": "YBX1 mRNA; 10 nM siRNA", "value": "+++ (At least 70% inhibition)"}, {"measurement": "growth inhibition, SK-Mel-5 cells", "setting": "SK-Mel-5 cells", "value": "+++ (At least 70% inhibition)"}]}]}
